Assay results as given in PMC10239507, “Development of allosteric and selective CDK2 inhibitors for contraception with negative cooperativity to cyclin binding” (Nature Communications, 2023).

Assays:
Test in all cases: biochemical
[1] = molecular target: T1, 371 kinases (kinase named in each endpoint) (Homo sapiens, UniProt Q09013); conditions: DMPK
T1 construct: purchased Reaction Biology

[2] = molecular target: T2, 371 kinases (kinase named in each endpoint) (Homo sapiens, UniProt Q9UK32); conditions: RSK4
T2 construct: purchased Reaction Biology

[3] = molecular target: T3, 371 kinases (kinase named in each endpoint) (Homo sapiens, UniProt P53778); conditions: P38G
T3 construct: purchased Reaction Biology

[4] = molecular target: T4, 371 kinases (kinase named in each endpoint) (Homo sapiens, UniProt Q99759); conditions: MEKK3
T4 construct: purchased Reaction Biology

[5] = molecular target: T5, 371 kinases (kinase named in each endpoint) (Homo sapiens, UniProt Q15349); conditions: RSK3
T5 construct: purchased Reaction Biology

[6] = molecular target: T6, 371 kinases (kinase named in each endpoint) (Homo sapiens, UniProt Q8TD19); conditions: NEK9
T6 construct: purchased Reaction Biology

[7] = molecular target: T7, 371 kinases (kinase named in each endpoint) (Homo sapiens, UniProt Q9Y2U5); conditions: MEKK2
T7 construct: purchased Reaction Biology

[8] = molecular target: T8, 371 kinases (kinase named in each endpoint) (Homo sapiens, UniProt P42680); conditions: TEC
T8 construct: purchased Reaction Biology

[9] = molecular target: T9, 371 kinases (kinase named in each endpoint) (Homo sapiens, UniProt P06239); conditions: LCK
T9 construct: purchased Reaction Biology

[10] = molecular target: T10, 371 kinases (kinase named in each endpoint) (Homo sapiens, UniProt P07949); conditions: RET
T10 construct: purchased Reaction Biology

[11] = molecular target: T11, 371 kinases (kinase named in each endpoint) (Homo sapiens, UniProt Q16288); conditions: TRKC
T11 construct: purchased Reaction Biology

[12] = molecular target: T12, 371 kinases (kinase named in each endpoint) (Homo sapiens, UniProt Q8WXR4); conditions: MYO3B
T12 construct: purchased Reaction Biology

[13] = molecular target: T13, 371 kinases (kinase named in each endpoint) (Homo sapiens, UniProt Q96GX5); conditions: MASTL
T13 construct: purchased Reaction Biology

[14] = molecular target: T14, 371 kinases (kinase named in each endpoint) (Homo sapiens, UniProt O94921); conditions: CDK14/CYCLIN Y (PFTK1)
T14 construct: purchased Reaction Biology

[15] = test system: 371 kinases (kinase named in each endpoint); conditions: 10 µM
[16] = molecular target: T15, 371 kinases (kinase named in each endpoint) (Homo sapiens, UniProt O14757); conditions: CHK1
T15 construct: purchased Reaction Biology

[17] = molecular target: T16, 371 kinases (kinase named in each endpoint) (Homo sapiens, UniProt Q13627); conditions: DYRK1/DYRK1A
T16 construct: purchased Reaction Biology

[18] = molecular target: T17, 371 kinases (kinase named in each endpoint) (Homo sapiens, UniProt Q04759); conditions: PKCTHETA
T17 construct: purchased Reaction Biology

[19] = molecular target: T18, 371 kinases (kinase named in each endpoint) (Homo sapiens, UniProt P11802)
T18 construct: purchased Reaction Biology
T18 sequence (P11802 whole entry): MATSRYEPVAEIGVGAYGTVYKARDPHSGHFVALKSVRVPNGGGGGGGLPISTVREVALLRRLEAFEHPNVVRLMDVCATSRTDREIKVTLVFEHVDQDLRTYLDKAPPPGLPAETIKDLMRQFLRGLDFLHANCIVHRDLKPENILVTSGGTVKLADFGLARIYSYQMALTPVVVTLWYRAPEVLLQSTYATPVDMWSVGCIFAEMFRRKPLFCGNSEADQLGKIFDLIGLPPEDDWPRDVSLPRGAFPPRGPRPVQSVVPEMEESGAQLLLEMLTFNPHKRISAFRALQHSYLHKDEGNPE

[20] = molecular target: T19, 371 kinases (kinase named in each endpoint) (Homo sapiens, UniProt P21802); conditions: FGFR2
T19 construct: purchased Reaction Biology
T19 sequence (P21802 22-821): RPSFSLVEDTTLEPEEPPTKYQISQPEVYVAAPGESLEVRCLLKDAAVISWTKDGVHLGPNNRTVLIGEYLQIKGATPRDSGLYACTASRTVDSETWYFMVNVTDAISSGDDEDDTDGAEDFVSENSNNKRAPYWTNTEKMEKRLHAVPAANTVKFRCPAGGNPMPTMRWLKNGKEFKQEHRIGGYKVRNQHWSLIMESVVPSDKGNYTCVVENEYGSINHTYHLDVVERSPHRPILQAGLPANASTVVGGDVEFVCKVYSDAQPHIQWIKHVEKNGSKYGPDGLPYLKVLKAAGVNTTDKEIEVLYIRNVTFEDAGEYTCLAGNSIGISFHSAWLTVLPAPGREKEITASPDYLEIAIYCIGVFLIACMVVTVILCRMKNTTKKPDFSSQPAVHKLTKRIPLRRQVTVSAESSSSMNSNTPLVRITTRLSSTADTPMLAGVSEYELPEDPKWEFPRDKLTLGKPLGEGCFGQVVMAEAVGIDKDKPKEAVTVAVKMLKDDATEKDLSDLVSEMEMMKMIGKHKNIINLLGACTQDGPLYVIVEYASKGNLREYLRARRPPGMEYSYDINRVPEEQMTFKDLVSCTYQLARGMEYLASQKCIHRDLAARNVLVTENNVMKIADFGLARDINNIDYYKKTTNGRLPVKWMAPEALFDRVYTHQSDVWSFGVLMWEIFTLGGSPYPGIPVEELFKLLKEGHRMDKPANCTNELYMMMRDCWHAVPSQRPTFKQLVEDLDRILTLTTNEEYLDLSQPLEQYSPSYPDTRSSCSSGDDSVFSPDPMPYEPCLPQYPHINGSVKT

[21] = molecular target: T20, 371 kinases (kinase named in each endpoint) (Homo sapiens, UniProt Q96PY6); conditions: NEK1
T20 construct: purchased Reaction Biology

[22] = molecular target: T21, 371 kinases (kinase named in each endpoint) (Homo sapiens, UniProt Q9UBS0); conditions: P70S6KB/RPS6KB2
T21 construct: purchased Reaction Biology
T21 sequence (Q9UBS0 whole entry): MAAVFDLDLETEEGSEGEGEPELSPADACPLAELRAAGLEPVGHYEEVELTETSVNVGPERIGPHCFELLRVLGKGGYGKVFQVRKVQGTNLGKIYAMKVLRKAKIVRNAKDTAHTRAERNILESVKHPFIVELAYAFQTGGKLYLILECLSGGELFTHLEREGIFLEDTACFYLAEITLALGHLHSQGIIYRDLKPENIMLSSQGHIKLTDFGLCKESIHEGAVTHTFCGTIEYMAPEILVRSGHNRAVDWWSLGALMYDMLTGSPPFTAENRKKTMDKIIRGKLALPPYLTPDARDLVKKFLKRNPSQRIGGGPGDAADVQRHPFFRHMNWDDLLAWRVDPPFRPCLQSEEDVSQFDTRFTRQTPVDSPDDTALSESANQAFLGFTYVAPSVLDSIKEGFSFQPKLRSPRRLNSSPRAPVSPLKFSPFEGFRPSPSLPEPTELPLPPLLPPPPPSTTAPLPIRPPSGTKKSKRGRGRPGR

[23] = molecular target: T22, 371 kinases (kinase named in each endpoint) (Homo sapiens, UniProt Q9HC98); conditions: NEK6
T22 construct: purchased Reaction Biology

[24] = molecular target: T23, 371 kinases (kinase named in each endpoint) (Homo sapiens, UniProt O00444); conditions: PLK4/SAK
T23 construct: purchased Reaction Biology

[25] = molecular target: T24, 371 kinases (kinase named in each endpoint) (Homo sapiens, UniProt Q15569); conditions: TESK1
T24 construct: purchased Reaction Biology

[26] = molecular target: T25, 371 kinases (kinase named in each endpoint) (Homo sapiens, UniProt O43353); conditions: RIPK2
T25 construct: purchased Reaction Biology

[27] = molecular target: T26, 371 kinases (kinase named in each endpoint) (Homo sapiens, UniProt Q92918); conditions: HPK1/MAP4K1
T26 construct: purchased Reaction Biology
T26 sequence (Q92918 whole entry): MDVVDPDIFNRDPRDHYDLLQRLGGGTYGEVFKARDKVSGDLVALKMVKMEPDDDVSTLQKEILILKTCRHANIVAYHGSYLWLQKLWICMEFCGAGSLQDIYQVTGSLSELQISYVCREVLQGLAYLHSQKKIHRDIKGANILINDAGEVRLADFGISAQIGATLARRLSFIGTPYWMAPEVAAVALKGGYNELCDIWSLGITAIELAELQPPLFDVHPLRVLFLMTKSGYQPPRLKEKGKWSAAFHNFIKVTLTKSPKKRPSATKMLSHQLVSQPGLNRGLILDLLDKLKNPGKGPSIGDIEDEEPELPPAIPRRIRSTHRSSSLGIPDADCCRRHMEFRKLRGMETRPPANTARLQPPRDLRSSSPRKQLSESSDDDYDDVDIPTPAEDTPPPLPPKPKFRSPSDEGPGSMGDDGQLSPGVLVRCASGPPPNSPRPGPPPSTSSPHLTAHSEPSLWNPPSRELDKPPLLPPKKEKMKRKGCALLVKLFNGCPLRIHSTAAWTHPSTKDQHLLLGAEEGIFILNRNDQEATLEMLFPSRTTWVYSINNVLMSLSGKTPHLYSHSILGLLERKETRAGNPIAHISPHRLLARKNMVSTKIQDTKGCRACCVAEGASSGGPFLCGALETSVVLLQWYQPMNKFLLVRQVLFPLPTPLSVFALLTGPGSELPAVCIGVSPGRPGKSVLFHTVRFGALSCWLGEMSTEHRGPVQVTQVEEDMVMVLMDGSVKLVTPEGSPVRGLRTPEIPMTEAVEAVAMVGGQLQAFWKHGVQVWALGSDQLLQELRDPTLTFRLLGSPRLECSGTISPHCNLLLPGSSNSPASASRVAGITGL

[28] = molecular target: T27, 371 kinases (kinase named in each endpoint) (Homo sapiens, UniProt Q9UM73); conditions: ALK
T27 construct: purchased Reaction Biology

[29] = molecular target: T28, 371 kinases (kinase named in each endpoint) (Homo sapiens, UniProt O60674); conditions: JAK2
T28 construct: purchased Reaction Biology
T28 sequence (O60674 whole entry): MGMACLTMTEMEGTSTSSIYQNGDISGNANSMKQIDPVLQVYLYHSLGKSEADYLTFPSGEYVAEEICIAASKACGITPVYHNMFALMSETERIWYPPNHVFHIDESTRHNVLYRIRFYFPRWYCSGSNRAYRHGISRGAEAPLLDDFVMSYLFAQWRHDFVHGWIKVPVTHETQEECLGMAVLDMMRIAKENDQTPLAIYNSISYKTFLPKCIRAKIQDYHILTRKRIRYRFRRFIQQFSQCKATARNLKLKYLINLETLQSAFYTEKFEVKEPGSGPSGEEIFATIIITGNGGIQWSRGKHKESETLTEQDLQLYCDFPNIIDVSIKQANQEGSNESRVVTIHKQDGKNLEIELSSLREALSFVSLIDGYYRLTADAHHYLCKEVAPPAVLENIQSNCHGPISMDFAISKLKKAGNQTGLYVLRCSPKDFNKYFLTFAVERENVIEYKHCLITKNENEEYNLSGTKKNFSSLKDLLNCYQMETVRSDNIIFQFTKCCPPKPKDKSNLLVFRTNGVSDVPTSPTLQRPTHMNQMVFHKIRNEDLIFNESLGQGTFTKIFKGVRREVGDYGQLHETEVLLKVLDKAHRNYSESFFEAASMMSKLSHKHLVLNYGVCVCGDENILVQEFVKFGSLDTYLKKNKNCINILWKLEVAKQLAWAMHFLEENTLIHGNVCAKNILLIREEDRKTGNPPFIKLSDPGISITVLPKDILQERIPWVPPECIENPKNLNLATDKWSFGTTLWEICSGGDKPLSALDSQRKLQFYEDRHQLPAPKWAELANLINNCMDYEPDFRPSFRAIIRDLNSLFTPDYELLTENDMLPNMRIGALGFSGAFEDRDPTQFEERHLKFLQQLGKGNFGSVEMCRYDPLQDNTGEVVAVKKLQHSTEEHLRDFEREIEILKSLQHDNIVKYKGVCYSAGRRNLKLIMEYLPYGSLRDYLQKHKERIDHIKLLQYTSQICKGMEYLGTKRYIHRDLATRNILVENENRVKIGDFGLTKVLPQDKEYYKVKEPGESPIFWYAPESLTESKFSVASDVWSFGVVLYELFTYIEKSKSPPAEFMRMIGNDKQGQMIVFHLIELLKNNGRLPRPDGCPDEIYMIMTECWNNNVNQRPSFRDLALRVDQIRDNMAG

[30] = molecular target: T29, 371 kinases (kinase named in each endpoint) (Homo sapiens, UniProt O14965); conditions: AURORA A
T29 construct: purchased Reaction Biology

[31] = molecular target: T30, 371 kinases (kinase named in each endpoint) (Homo sapiens, UniProt P20794); conditions: MAK
T30 construct: purchased Reaction Biology
T30 sequence (P20794 whole entry): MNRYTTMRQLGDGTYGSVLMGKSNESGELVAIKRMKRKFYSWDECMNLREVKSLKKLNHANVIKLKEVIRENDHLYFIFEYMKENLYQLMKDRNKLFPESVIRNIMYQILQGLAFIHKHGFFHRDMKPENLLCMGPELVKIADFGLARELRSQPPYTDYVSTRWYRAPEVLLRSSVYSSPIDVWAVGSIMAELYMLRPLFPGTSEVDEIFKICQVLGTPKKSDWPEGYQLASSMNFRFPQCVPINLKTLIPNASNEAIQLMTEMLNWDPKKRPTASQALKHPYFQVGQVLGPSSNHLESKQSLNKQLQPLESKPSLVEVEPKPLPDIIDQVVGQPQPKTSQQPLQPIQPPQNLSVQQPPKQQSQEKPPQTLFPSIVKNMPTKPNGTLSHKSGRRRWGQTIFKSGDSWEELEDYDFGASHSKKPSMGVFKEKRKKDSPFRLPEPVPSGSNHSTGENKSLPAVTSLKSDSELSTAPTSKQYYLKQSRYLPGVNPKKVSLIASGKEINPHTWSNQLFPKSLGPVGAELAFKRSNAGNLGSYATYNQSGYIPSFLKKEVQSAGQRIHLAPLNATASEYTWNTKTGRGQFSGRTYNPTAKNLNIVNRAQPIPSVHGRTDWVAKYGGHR

[32] = molecular target: T31, 371 kinases (kinase named in each endpoint) (Homo sapiens, UniProt Q13237); conditions: PKG2/PRKG2
T31 construct: purchased Reaction Biology

[33] = molecular target: T32, 371 kinases (kinase named in each endpoint) (Homo sapiens, UniProt Q8N5S9); conditions: CAMKK1
T32 construct: purchased Reaction Biology

[34] = molecular target: T33, 371 kinases (kinase named in each endpoint) (Homo sapiens, UniProt Q8N4C8); conditions: MINK/MINK1
T33 construct: purchased Reaction Biology

[35] = molecular target: T34, 371 kinases (kinase named in each endpoint) (Homo sapiens, UniProt O00311); conditions: CDC7/DBF4
T34 construct: purchased Reaction Biology

[36] = molecular target: T35, 371 kinases (kinase named in each endpoint) (Homo sapiens, UniProt P29376); conditions: TYK1/LTK
T35 construct: purchased Reaction Biology

T1 sequence (Q09013 whole entry): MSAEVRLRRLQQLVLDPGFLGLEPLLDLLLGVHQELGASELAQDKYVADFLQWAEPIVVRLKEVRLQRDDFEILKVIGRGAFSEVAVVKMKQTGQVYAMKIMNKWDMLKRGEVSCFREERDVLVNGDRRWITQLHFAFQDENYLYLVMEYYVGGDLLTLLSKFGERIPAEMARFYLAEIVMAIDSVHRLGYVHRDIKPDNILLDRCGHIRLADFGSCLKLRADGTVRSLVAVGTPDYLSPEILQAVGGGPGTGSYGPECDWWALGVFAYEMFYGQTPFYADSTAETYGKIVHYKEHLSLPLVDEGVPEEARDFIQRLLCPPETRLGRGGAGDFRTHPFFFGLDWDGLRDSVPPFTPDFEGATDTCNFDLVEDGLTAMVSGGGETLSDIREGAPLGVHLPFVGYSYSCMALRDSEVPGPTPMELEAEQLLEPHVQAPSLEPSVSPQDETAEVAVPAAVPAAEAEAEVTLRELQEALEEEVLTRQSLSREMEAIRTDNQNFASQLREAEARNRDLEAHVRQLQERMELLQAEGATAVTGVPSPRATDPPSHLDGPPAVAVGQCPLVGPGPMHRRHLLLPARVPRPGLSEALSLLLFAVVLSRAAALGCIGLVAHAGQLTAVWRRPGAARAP

Molecule `O=C(O)c1cc(C(F)(F)F)ccc1NCCc1c[nH]c2cc(Br)ccc12` [Compound 5, 2-((2-(6-Bromo-1H-indol-3-yl)ethyl)amino)−5-(trifluoromethyl)benzoic Acid] has an activity at 10 µM [1] of 108.2 ± 0.2%, an activity at 10 µM [2] of 91 ± 0.4% and an activity at 10 µM [3] of 107 ± 1.5%. For the same molecule, the activity at 10 µM [4] was 107 ± 1.1%, the activity at 10 µM [5] was 87 ± 1.4% and the activity at 10 µM [6] was 117 ± 3.3%. For the same molecule, the activity at 10 µM [7] was 107.9 ± 0.2%, the activity at 10 µM [8] was 101 ± 1.6% and the activity at 10 µM [9] was 76.5 ± 2.7%. It also gave an activity at 10 µM [10] of 92.7 ± 3.3%, an activity at 10 µM [11] of 91 ± 0.5% and an activity at 10 µM [12] of 97.8 ± 1.5%. For the same molecule, the activity at 10 µM [13] was 101.7 ± 0.2%, the activity at 10 µM [14] was 114 ± 1.5% and the “inhibition of any kinase” value [15] was no more than 80%. For the same molecule, the “share of the 371 kinases tested with >50% inhibition” value [15] was 4%, the “% Activity” value ([15]; LYN B) was 93.2 ± 0.3% and the “% Activity” value ([15]; PKCB2) was 100.1 ± 1.4%. For the same molecule, the “% Activity” value ([15]; PKG1B) was 78.0 ± 0.4%, the activity at 10 µM [16] was 95.2 ± 1.2% and the activity at 10 µM [17] was 80 ± 5.9%. It also gave an activity at 10 µM [18] of 95.5 ± 0.4%, an activity at 10 µM ([19]; CDK4/CYCLIN D1) of 80.1 ± 2.6% and an activity at 10 µM ([19]; CDK4/CYCLIN D2) of 29.1 ± 0.1%. It also gave an activity at 10 µM ([19]; CDK4/CYCLIN D3) of 82.9 ± 0.6%, an activity at 10 µM [20] of 101.3 ± 0.5% and an activity at 10 µM [21] of 91.8 ± 2.3%. The activity at 10 µM [22] was 96.1 ± 1.6%, the activity at 10 µM [23] was 77.6 ± 0.1% and the activity at 10 µM [24] was 91.2 ± 1.2%. For the same molecule, the activity at 10 µM [25] was 82.4 ± 1.3%, the activity at 10 µM [26] was 109 ± 2.9% and the activity at 10 µM [27] was 77.2 ± 0.7%. The activity at 10 µM [28] was 93.8 ± 0.7%, the activity at 10 µM [29] was 78.8 ± 1.9% and the activity at 10 µM [30] was 75.2 ± 1.8%. The activity at 10 µM [31] was 81.6 ± 0.5%, the activity at 10 µM [32] was 117 ± 7.9% and the activity at 10 µM [33] was 65.6 ± 1.3%. It also gave an activity at 10 µM [34] of 86.9 ± 0.4%, an activity at 10 µM [35] of 77.9 ± 2.9% and an activity at 10 µM [36] of 86.2 ± 1.1%.
